Assay results taken from patent US20240024317A1, “CANCER TREATMENT USING BOSENTAN IN COMBINATION WITH A CHECKPOINT INHIBITOR” (Materia Therapeutics Inc., priority 2020, published 2024).

Assays:
[1] = tested on: orthotopic 4T1 breast tumors; assay: Pimonidazole hypoxia staining (hypoxic area fraction); type: in vivo, mice; conditions: 1 mg/kg; 4T1 (FIG. 2B)
Procedure: Because reducing collagen I levels and tissue stiffness decompresses vessels, it was hypothesized that hypoxia, which is an indicator of decreased blood flow to the tumor, would be reduced with bosentan treatment. […] For the hypoxia studies, Mice bearing orthotopic E0771 or 4T1 breast tumors were injected (intraperitoneal) with 60 mg/kg of pimonidazole HCl at 2 hr prior to tumor removal. Prior to tumors excision, animals were anesthetized via Avertin (200 mg/kg, intraperitoneal). Primary tumors were then excised, fixed in 4% PFA, embedded in OCT and processed accordingly for IHC. Hypoxic regions were detected using the mouse anti-pimonidazole RED 549 conjugate antibody (HP7-100Kit, 1:100). Hypoxic area fraction across different treatment groups was normalized to DAPI staining. For fluorescent immunohistochemistry, tumors were removed, washed twice in 1× PBS for 10 min and incubated with 4% PFA overnight at 4° C. The fixative was aspirated, and samples washed twice in 1× PBS for 10 min. Fixed tissues were embedded in optimal cutting temperature compound in cryomolds (Tissue-Tek) and frozen completely at −20° C. […] CD31 signal was detected with Alexa Fluor-488 anti-rabbit IgG (H+L) and CD3 signal with Alexa Fluor-647 anti-rat IgG (H+L) secondary antibodies. Tumor associated T cell and vessel content was determined by the CD31 and CD3 area fraction normalized to DAPI staining. […]

[2] = tested on: spontaneous 4T1 metastases; assay: Survival of mice with spontaneous metastases after surgical removal of primary tumors; type: in vivo; conditions: 1 mg/kg bosentan combined with ICB cocktail, n=8-10
Procedure: (§1) To determine if a stiffness-reducing and hypoxia-reducing (blood flow-increasing) regimen of bosentan could enhance the efficacy of an ICB cocktail of anti-PD-1 (mouse monoclonal anti-PD-1 CD279, clone RMP1-14, BioXCell) and anti-CTLA-4 (mouse monoclonal anti-CTLA-4 CD152, clone 9D9, BioXCell) antibodies, mice bearing primary tumors in a neo-adjuvant setting were administered various treatments. Therapy was administered before removing the primary tumors surgically to assess mice survival against spontaneous metastases that arose on treatment. For the combinatorial treatment with bosentan and Immunotherapy studies, bosentan 1 mg/kg or equal volume of diluent (control group) was administered by intraperitoneal injection (i.p.) once a day for 14 days, starting from once the tumor volumes reached an average size of 5 mm diameter. Immunotherapy was administrated as a cocktail of 10 mg/kg anti-PD-1 (CD279, clone RMP1-14, BioXCell) and 5 mg/kg anti-CTLA-4 (CD152, clone 9D9) following dilution in the recommended InVivoPure pH 7.0 Dilution Buffer (BioXCell). The immunotherapy cocktail was administered i.p. when tumors reached an average size of 200 mm^3 every three days for three doses. For the immunotherapy studies, animals were also treated with a non-targeting isotype control antibody (BioXCell). Primary tumors were excised when they reached an average size of 700 mm^3 and the tissue was sutured for the study of the metastatic tumors. Planar dimensions (x, y) of tumor were monitored every 2-3 days using a digital caliper and tumor volume was estimated from the volume of an ellipsoid and assuming that the third dimension, z, is equal to […]. For the overall survival studies, the ending point was the time to mouse death. […] In the E0771 study, 8 out of 10 mice initiated survived. […] The remaining five mice were rechallenged with a second inoculation of E0771 cells and the tumor growth rates were compared against healthy age-matched control mice.

[3] = tested on: spontaneous E0771 metastases; assay: as above; type: in vivo
Procedure: as §1

Compound: COc1ccccc1Oc1c(NS(=O)(=O)c2ccc(C(C)(C)C)cc2)nc(-c2ncccn2)nc1OCCO [bosentan, 4-tert-butyl-N-[6-(2-hydroxy-ethoxy)-5-(2-methoxy-phenoxy)-2-(pyrimidin-2-yl)pyrimidin-4-yl] benzenesulfonamide]
- hypoxia (hypoxic area fraction) [1]: reduced hypoxia
- survival, median overall survival (Kaplan-Meier) [2]: potentiated
- survival (Kaplan-Meier) ([3]; 1 mg/kg bosentan combined with ICB cocktail, E0771): potentiated
- mice surviving ([3]; E0771 study, bosentan combined with ICB cocktail): 8 out of 10
- macrometastases in the lungs ([3]; three surviving mice sacrificed, bosentan combined with ICB cocktail): no evidence of macrometasteses
